Test results from patent US20140249135A1, “PIM KINASE INHIBITORS AND METHODS OF THEIR USE” (NOVARTIS AG, priority 2007, published 2014).
Read-outs that look alike come from different tables or passages of the source.

Assays:
Assay type in all cases: biochemical
Pim1 kinase = Pim1 kinase (Homo sapiens, UniProt P11309); assay: Pim1 ATP depletion assay; conditions: Pim1 ATP depletion assay;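 note: Luciferase-luciferin luminescence readout of residual ATP after PIM1 transfers phosphate to a peptide substrate, 40 µM ATP added, reaction run to roughly half ATP consumption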
Pim1 kinase, sequence (P11309 whole entry): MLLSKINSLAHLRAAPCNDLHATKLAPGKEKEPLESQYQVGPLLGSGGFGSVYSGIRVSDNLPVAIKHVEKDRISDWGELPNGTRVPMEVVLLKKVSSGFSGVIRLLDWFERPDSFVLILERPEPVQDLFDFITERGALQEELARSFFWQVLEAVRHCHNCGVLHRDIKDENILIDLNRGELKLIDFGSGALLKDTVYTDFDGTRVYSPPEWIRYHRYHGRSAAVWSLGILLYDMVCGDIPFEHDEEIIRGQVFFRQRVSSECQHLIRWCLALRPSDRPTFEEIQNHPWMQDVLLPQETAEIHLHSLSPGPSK

Pim2 kinase = Pim2 kinase (Homo sapiens, UniProt Q9P1W9); assay: Pim2 ATP depletion assay;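 note: Luciferase-based luminescent readout of ATP remaining after PIM2 phosphorylates a BAD peptide, final 5 nM enzyme, 4 µM ATP, 10 µM peptide, 2.5% DMSO, run to roughly half ATP consumption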
Pim2 kinase, sequence (Q9P1W9 whole entry): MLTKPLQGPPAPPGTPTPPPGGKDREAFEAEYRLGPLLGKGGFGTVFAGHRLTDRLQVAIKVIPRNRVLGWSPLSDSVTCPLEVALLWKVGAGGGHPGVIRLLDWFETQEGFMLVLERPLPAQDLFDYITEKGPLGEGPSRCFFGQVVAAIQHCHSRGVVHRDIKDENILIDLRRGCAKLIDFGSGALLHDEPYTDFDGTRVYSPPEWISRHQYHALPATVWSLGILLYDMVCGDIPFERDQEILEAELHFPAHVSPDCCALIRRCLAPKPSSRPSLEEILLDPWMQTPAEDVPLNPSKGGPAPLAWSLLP

Pim3 kinase = Pim3 kinase (Homo sapiens, UniProt Q86V86); assay: Pim3 ATP depletion assay

| IC50 (Pim1 kinase; read-out: PIM1 IC50) [µM] | IC50 (Pim2 kinase; read-out: PIM2 IC50) [µM] | IC50 (Pim3 kinase; read-out: PIM3 IC50) [µM] | IC50 (Pim1 kinase; read-out: IC50 (μM) PIM1) [µM] | IC50 (Pim2 kinase; read-out: IC50 (μM) PIM2) [µM] | IC50 (Pim3 kinase; read-out: IC50 (μM) PIM3) [µM] | Structure (SMILES) |
| --- | --- | --- | --- | --- | --- | --- |
| < 1 | < 1 | < 1 |  |  |  | Nc1ccc(-c2ncccc2Cl)nc1C(=O)Nc1cnccc1N1CCC[C@H](N)C1 [Example 719, 5-Amino-3′-chloro-[2,2′]bi-pyridinyl-6-carboxylic acid (3-amino-3,4,5,6-tetrahydro-2H-[1,4′]bipyridinyl-3′-yl)-amide] |
| < 1 | < 1 | < 1 |  |  |  | Nc1ccc(-c2c(F)cccc2F)nc1C(=O)Nc1cnccc1N1CC(N)CC(CO)C1 (stereo not drawn) [Example 576, 3-Amino-6-(2,6-difluoro-phenyl)-pyridine-2-carboxylic acid (5-amino-3-hydroxymethyl-3,4,5,6-tetrahydro-2H-[1,4′]bipyridinyl-3′-yl)-amide] |
| < 1 | < 1 | < 1 |  |  |  | Nc1ccc(-c2c(F)cccc2F)nc1C(=O)Nc1cnccc1N1C[C@@H](N)C[C@@H](O)C1 [Example 672, 3-Amino-6-(2,6-difluoro-phenyl)-pyridine-2-carboxylic acid (3-amino-5-hydroxy-3,4,5,6-tetrahydro-2H-[1,4′]bi-pyridinyl-3′-yl)-amide] |
| < 1 | < 1 | < 1 |  |  |  | Nc1cc(-c2ccncc2NC(=O)c2nc(-c3c(F)cccc3F)ccc2N)ccn1 [Example 617, 3-amino-N-(2′-amino-4,4′-bipyridin-3-yl)-6-(2,6-difluorophenyl)pyridine-2-carboxamide] |
|  |  |  | < 1 | < 1 | < 1 | Cc1cc(F)c(-c2ccc(N)c(C(=O)Nc3cnccc3N3CCC[C@H](N)C3)n2)cc1Cl [Example 478, 3-Amino-6-(5-chloro-2-fluoro-4-methyl-phenyl)-pyridine-2-carboxylic acid (3-amino-3,4,5,6-tetrahydro-2H-[1,4′]bipyridinyl-3′-yl)-amide] |
|  |  |  | < 1 | < 1 | < 1 | CC(C)Oc1ccc(F)c(-c2ccc(N)c(C(=O)Nc3cnccc3N3CCC[C@H](N)C3)n2)c1F [Example 488, 3-Amino-6-(2,6-difIuoro-3-isopropoxy-phenyl)-pyridine-2-carboxylic acid (3-amino-3,4,5,6-tetrahydro-2H-[1,4′]bipyridinyl-3′-yl)-amide] |
| < 1 | < 1 | < 1 |  |  |  | Nc1cc(F)c(-c2c(F)ccc(O)c2F)nc1C(=O)Nc1cnccc1N1CCC[C@H](N)C1 [Example 751, 3-Amino-N-(4-((S)-3-aminopiperidin-1-yl)pyridin-3-yl)-6-(2,6-difluoro-3-hydroxyphenyl)-5-fluoropicolinamide] |
|  |  |  | < 1 | < 1 | < 1 | Nc1ccc(-c2c(F)cccc2F)nc1C(=O)Nc1cnccc1N1C[C@@H](N)C[C@@H](F)C1 [Example 293, 3-Amino-6-(2,6-difluoro-phenyl)-pyridine-2-carboxylic acid (3-amino-5-fluoro-3,4,5,6-tetrahydro-2H-[1,4′]bipyridinyl-3′-yl)-amide] |
| < 1 | < 1 | < 1 |  |  |  | Nc1ccc(-c2c(F)cccc2F)nc1C(=O)Nc1cnccc1N1CCC[C@H](O)C1 [Example 653, 3-Amino-6-(2,6-difluoro-phenyl)-pyridine-2-carboxylic acid (3-hydroxy-3,4,5,6-tetra-hydro-2H-[1,4′]bipyridinyl-3′-yl)-amide] |
| < 1 | < 1 | < 1 |  |  |  | Nc1ccc(-c2ccc(Cl)cn2)nc1C(=O)Nc1cnccc1N1CCC[C@H](N)C1 [Example 713, 5-Amino-5′-chloro-[2,2′]bi-pyridinyl-6-carboxylic acid (3-amino-3,4,5,6-tetrahydro-2H-[1,4′]bipyridinyl-3′-yl)-amide] |
|  |  |  | < 1 | < 1 | < 1 | Cc1ccsc1-c1ccc(N)c(C(=O)Nc2cnccc2N2CCC[C@H](N)C2)n1 [Example 448, 3-Amino-6-(3-methyl-thiophen-2-yl)-pyridine-2-carboxylic acid (3-amino-3,4,5,6-tetrahydro-2H-[1,4′]bipyridinyl-3′-yl)-amide] |
|  |  |  | < 1 | < 1 | < 1 | Nc1ccc(-c2c(F)cccc2F)nc1C(=O)Nc1cnccc1N1CC(N)CC(CF)C1 (stereo not drawn) [Example 278, 3-Amino-6-(2,6-difluoro-phenyl)-pyridine-2-carboxylic acid (5-amino-3-fluoromethyl-3,4,5,6-tetrahydro-2H-[1,4′]bi-pyridinyl-3′-yl)-amide] |
| < 1 | < 1 | < 1 |  |  |  | Cc1cc(Cl)cnc1-c1ccc(N)c(C(=O)Nc2cnccc2N2CCC[C@H](N)C2)n1 [Example 701, 5-Amino-5′-chloro-3′-methyl-[2,2′]bipyridinyl-6-carboxylic acid (3-amino-3,4,5,6-tetra-hydro-2H-[1,4′]bipyridinyl-3′-yl)-amide] |

Second part, the molecule before the results:

| Structure (SMILES) | IC50 (Pim1 kinase; read-out: PIM1 IC50) [µM] | IC50 (Pim2 kinase; read-out: PIM2 IC50) [µM] | IC50 (Pim3 kinase; read-out: PIM3 IC50) [µM] | IC50 (Pim1 kinase; read-out: IC50 (μM) PIM1) [µM] | IC50 (Pim2 kinase; read-out: IC50 (μM) PIM2) [µM] | IC50 (Pim3 kinase; read-out: IC50 (μM) PIM3) [µM] |
| --- | --- | --- | --- | --- | --- | --- |
| Nc1ncc(-c2ccc(N)c(C(=O)Nc3cnccc3N3CCC[C@H](N)C3)n2)c(N)n1 [Example 417, 3-amino-6-(2,4-diamino-pyrimidin-5-yl)-pyridine-2-carboxylic acid ((S)-3-amino-3,4,5,6-tetrahydro-2H-[1,4′]bi-pyridinyl-3′-yl)-amide] |  |  |  | < 1 | < 1 | < 1 |
| Nc1ccc(-c2ccccc2F)nc1C(=O)Nc1cnccc1-c1ccncc1 [Example 606, 3-amino-N-4,4′-bipyridin-3-yl-6-(2-fluorophenyl)-pyridine-2-carboxamide] | < 1 | < 1 | < 1 |  |  |  |
| CN(C)C(=O)c1ccc(F)c(-c2nc(C(=O)Nc3cnccc3N3CCC[C@H](N)C3)c(N)cc2F)c1 [Example 515, 3-Amino-6-(5-dimethylcarbamoyl-2-fluoro-phenyl)-5-fluoro-pyridine-2-carboxylic acid (3-amino-3,4,5,6-tetrahydro-2H-[1,4′]bipyridinyl-3′-yl)-amide] |  |  |  | < 1 | < 1 | < 1 |
| Nc1cc(-c2ccncc2NC(=O)c2nc(-c3c(F)cccc3F)ccc2N)nc(C(F)(F)F)n1 [Example 266, 3-Amino-6-(2,6-difluoro-phenyl)-pyridine-2-carboxylic acid [4-(6-amino-2-trifluoromethyl-pyrimidin-4-yl)-pyridin-3-yl]-amide] |  |  |  | < 1 | < 1 | < 1 |
| Nc1ccc(-c2cccc(OCc3ccccc3)n2)nc1C(=O)Nc1cnccc1N1CCC[C@H](N)C1 [Example 695, 5-Amino-6′-benzyloxy-[2,2′]bi-pyridinyl-6-carboxylic acid (3-amino-3,4,5,6-tetrahydro-2H-[1,4′]bipyridinyl-3′-yl)-amide] | < 1 | < 1 | < 1 |  |  |  |
| Cc1ccc(N)c(C(=O)Nc2cnccc2N2CCC[C@H](N)C2)n1 [Example 637, 3-amino-N-{4-[(3S)-3-aminopiperidin-1-yl]pyridin-3-yl}-6-methylpyridine-2-carboxamide] | < 1 | < 1 | < 1 |  |  |  |
| Nc1nccnc1C(=O)Nc1cc(C(=O)C2CC2)ccc1N1CCNCC1 [Example 245, 3-amino-N-[5-(cyclopropyl-carbonyl)-2-piperazin-1-yl-phenyl]pyrazine-2-carboxamide] |  |  |  | > 25 | > 25 | 10 to 25 |
| CSc1nc(N)cc(-c2ccncc2NC(=O)c2nc(-c3c(F)ccc(OC(C)C)c3F)ccc2N)n1 [Example 536, 3-Amino-6-(2,6-difluoro-3-isopropoxy-phenyl)-pyridine-2-carboxylic acid [4-(6-amino-2-methylsulfanyl-pyrimidin-4-yl)-pyridin-3-yl]-amide] | < 1 | < 1 | < 1 |  |  |  |
| CC(C)NC(=O)c1ccc(F)c(-c2ccc(N)c(C(=O)Nc3cnccc3N3CCC(F)(F)C(N)C3)n2)c1 (stereo not drawn) [Example 255, 3-Amino-6-(2-fluoro-5-isopropylcarbamoyl-phenyl)-pyridine-2-carboxylic acid (3-amino-4,4-difluoro-3,4,5,6-tetra-hydro-2H-[1,4′]bipyridinyl-3′-yl)-amide] |  |  |  | < 1 | < 1 | < 1 |
| CC(C)NC(=O)c1ccc(F)c(-c2cccc(C(=O)Nc3cnccc3N3CCC[C@H](N)C3)n2)c1 [Example 453, 6-(2-Fluoro-5-isopropylcarbamoyl-phenyl)-pyridine-2-carboxylic acid (3-amino-3,4,5,6-tetrahydro-2H-[1,4′]bipyridinyl-3′-yl)-amide] |  |  |  | < 1 | < 1 | < 1 |
| Nc1cc(F)c(-c2cccc(S(N)(=O)=O)c2)nc1C(=O)Nc1cnccc1N1CCC[C@H](N)C1 [Example 497, 3-Amino-5-fluoro-6-(3-sulfamoyl-phenyl)-pyridine-2-carboxylic acid (3-amino-3,4,5,6-tetrahydro-2H-[1,4′]bipyridinyl-3′-yl)-amide] |  |  |  | < 1 | < 1 | < 1 |
| N#Cc1ccsc1-c1ccc(N)c(C(=O)Nc2cnccc2N2CCC[C@H](N)C2)n1 [Example 490, 3-Amino-6-(3-cyano-thiophen-2-yl)-pyridine-2-carboxylic acid (3-amino-3,4,5,6-tetrahydro-2H-[1,4′]bipyridinyl-3′-yl)-amide] |  |  |  | < 1 | < 1 | < 1 |
| CC(C)NC(=O)c1ccc(F)c(-c2ccc(N)c(C(=O)Nc3cnccc3N3CCC[C@H](O)C3)n2)c1 [Example 651, 3-Amino-6-(2-fluoro-5-isopropylcarbamoyl-phenyl)-pyridine-2-carboxylic acid (3-hydroxy-3,4,5,6-tetrahydro-2H-[1,4′]bipyridinyl-3′-yl)-amide] | < 1 | < 1 | < 1 |  |  |  |
| Nc1ccc(-c2nccs2)nc1C(=O)Nc1cnccc1N1CC[C@@H](F)[C@H](N)C1 [Example 257, 3-amino-N-{4-[(3R,4R)-3-amino-4-fluoropiperidin-1-yl]pyridin-3-yl}-6-(1,3-thiazol-2-yl)pyridine-2-carboxamide] |  |  |  | < 1 | < 1 | < 1 |
